Results published in patent publication US20060194235A1, “HLJ1 gene expression” (priority 2005, published 2006).

Columns and labels:
PCY3 cells = test: In vitro Matrigel invasion assay; assay type: cell-based, human; conditions: siRNA treated
Method: The metastatic potential of tumors depends, in part, on the ability of the tumor cells to invade through a basement membrane and migrate to distant sites. The ability of cells transfected with HLJ1 to penetrate a Matrigel™ membrane using an in vitro assay, which is a modified Boyden chamber assay, as described in Example 15, was determined as an index of the metastatic potential of these cells. The YY1 transfectant PCY3, which expressed a high level of HLJ1, reduced cell invasion capability to about 56% and about 61% of the levels of CL1-0 and mock transfectants, respectively (68).
In vitro Matrigel™ invasion assays were performed in 6.5-mm transwell chambers (8 μm pore size; Costar®). The transwell filters in the chambers were coated with Matrigel™ (Becton Dickinson, Franklin Lakes, N.J.) (58). After a 16 or 24 h incubation, the filter was gently removed from the chamber, and the noninvasive cells on the upper surface were removed by wiping with a cotton swab. The cells that invaded the Matrigel™ and attached to the lower surface of the filter were fixed with methanol and stained with Giemza solution (Sigma, St. Louis, Mo.). The number of cells attached to the lower surface of the polycarbonate filter was counted under a light microscope at 200× magnification. Five fields of adherent cells were randomly counted in each well and the results were numerically averaged. […]

HLJ1 = test: siRNA knock-down of endogenous HLJ1 in the YY1 transfected cell line PCY3; assay type: cell-based, human; conditions: PCY3 cells
Description: Inhibiting the ability of transfected cells to express HLJ1 can restore their invasive capacity. Small inhibiting RNA (siRNA) specific for HLJ1 decreased the endogenous HLJ1 RNA level in the YY1 transfected cell line, PCY3.
Two siRNA sequences were synthesized according to standard protocols (68). The sequence of HLJ1-A was […]. The sequence of HLJ1-D was […]. HLJ1-A and HLJ1-D reduced its expression by 64%. […] A negative control, scrambled siRNA, had no significant effect on HLJ1 expression or invasive capacity.

HLJ1-D: siRNA specific for HLJ1, sequence AAACGCTGATGGAAGGAGTTA (other strand not given here)
ability of PCY3 cells to invade through Matrigel, compared to PCC2 cells (PCY3 cells): 87%
reduction of HLJ1 expression (HLJ1): 64%
